From US20250115864A1, “A FERMENTATION MEDIUM COMPRISING SULPHUR” (Evonik Operations GmbH, priority 2021, published 2025)

Tests used:
Format in all cases: cell-based
[1] = system: Clostridium autoethanogenum together with Clostridium kluyveri in a co-culture; assay: Continuous co-culture of Clostridium autoethanogenum and Clostridium kluyveri with high potassium thioacetate concentration
Procedure: (§1) The homoacetogenic bacterium Clostridium autoethanogenum was cultivated together with the chain elongating bacterium Clostridium kluyveri in a co-culture on synthesis gas in a mineral medium with potassium thioacetate as reduced sulfur source. The cultivation was carried out under anaerobic conditions in a pressure-resistant stainless steel bubble column loop reactor.
(§2) The cultivation was run at 37° C. and an overpressure of 2 bar as a continuous fermentation with continuous feeding of 300 L/h of a mixture of water, substrates, salts, trace elements and vitamins. The pH was automatically hold at 5.80 with ammonia feeding. The outlet stream of 300 L/h out of the fermenter was for 98.2% as permeate with cell retention and for 1.8% as purge without cell retention.
(§3) The culture was previously inoculated with cells from fresh cultures of C. autoethanogenum and C. kluyveri and was already running since >13.000 h full continuously as stable coculture at an optical density (OD600nm) of ˜ 11.8. Fresh medium was continuously fed into the reactor and fermentation broth continuously removed from the reactor with a dilution rate of 2.8 d^−1. During cultivation several 5 mL samples were taken to determinate OD600nm, PH und product formation. The determination of the product concentrations was performed by semiquantitative 1H-NMR spectroscopy. As an internal quantification standard sodium trimethylsilylpropionate (T (M) SP) was used.

[2] = system: Clostridium autoethanogenum together with Clostridium kluyveri in a co-culture; assay: Continuous co-culture of Clostridium autoethanogenum and Clostridium kluyveri with low potassium thioacetate concentration
Procedure: as §1, §2
as §3, with “>10.000” for “>13.000”, “9.0.” for “11.8.”

Clostridium ljungdahlii = assay: Formation of acetic acid and ethanol from synthesis gas with Clostridium ljungdahlii and refeeding of cysteine
Procedure: For the biotransformation of hydrogen and carbon dioxide to acetic acid and ethanol the homoacetogenic bacterium Clostridium ljungdahlii was cultivated on synthesis gas with refeeding of cysteine. All cultivation steps were carried out under anaerobic conditions in pressure-resistant glass bottles that can be closed airtight with a butyl rubber stopper.
The chemolithoautotrophic cultivation was carried out in a 1 L pressure-resistant glass bottle at 37° C., 100 rpm and a ventilation rate of 3 L/h with a premixed gas with 67% H2, 33% CO2 in an open water bath shaker for 69 h till OD600nm>0.4. The gas was discharged into the medium through a sparger with a pore size of 10 μm, which was mounted in the center of the reactors. Then the cell suspension was centrifuged and the cell pellet was resuspended in fresh CGF1 Medium.
For the production phase, as many washed cells from the preculture of C. ljungdahlii as necessary for an OD600nm of 0.2 were added to 100 ml mineral medium (CGF1 medium, pH 6.5, 1.4 g/L KOH, 2 g/L (NH4)2SO4, 1 g/L KH2PO4, 1 g/L K2HPO4, 10 mg/L FeSO4×7H2O, 3.8 mg/L MnSO4×1H2O, 246 mg/L MgSO4×7H2O, aerated for 30 min with a premixed gas with 67% H2 and 33% CO2). […] The cultivation was carried out in 500 mL pressure-resistant glass bottles at 37° C., 150 rpm in an open water bath shaker for 163 h which were aerated to an overpressure of 0.8 bar with a premixed gas with 67% H2, 33% CO2 one time a day. The pH was hold >5.0 by intermittent additions of a 140 g/L KOH solution. During the cultivation several 5 mL samples were taken to determinate OD600nm, pH und product formation. […] The determination of the product concentrations was performed by semiquantitative 1H-NMR spectroscopy. As an internal quantification standard sodium trimethylsilylpropionate (T (M) SP) was used.

[3] = 10.69 mg/L potassium thioacetate in media feed (before increase)
[4] = 50 h, 100 h and 150 h after increasing potassium thioacetate in media feed to 300% (32.07 mg/L)
[5] = 10.69 mg/L potassium thioacetate in media feed (before decrease)
[6] = 50 h after decreasing potassium thioacetate in media feed to 10% (1.69 mg/L)
[7] = culture C (refed with L-cysteine-hydrochloride) versus cultures A and B, production phase

CC(=O)[S-].[K+] [potassium thioacetate]
steady state concentration acetate [1, 3]: ~1.10 g/L
steady state concentration butyrate [1, 3]: ~1.08 g/L
steady state concentration ethanol [1, 3]: about 2.67 g/L
steady state concentration hexanoate [1, 3]: ~3.75 g/L
optical density (OD600nm) ([1]; 10.69 mg/L potassium thioacetate in media feed (before increase), stable coculture): ~11.8
CO2 turnover [1, 4]: 70%
OD(600 nm) [1, 4]: 11.80
steady state concentrations of the educts and products [1, 4]: stayed on the same level
CO2 turnover [2, 5]: 70%
OD(600 nm) [2, 5]: 9.0
steady state concentration acetate [2, 5]: ~0.90 g/L
steady state concentration butyrate [2, 5]: ~0.91 g/L
steady state concentration ethanol [2, 5]: about 3.27 g/L
steady state concentration hexanoate [2, 5]: ~3.61 g/L
CO2 turnover [2, 6]: 50%
OD(600 nm) [2, 6]: 7.60
ethanol concentration [2, 6]: 4.37 g/L
steady state concentration acetate [2, 6]: 0.50 g/L
steady state concentration butyrate [2, 6]: 0.53 g/L
steady state concentration hexanoate [2, 6]: 2.41 g/L

Cl.N[C@@H](CS)C(=O)O [L-cysteine, L-cysteine-hydrochloride]
OD(600 nm) (Clostridium ljungdahlii; culture A, initial 400 mg/L L-cysteine-hydrochloride, no refeed, 0 h): 0.206
OD(600 nm) (Clostridium ljungdahlii; culture A, initial 400 mg/L L-cysteine-hydrochloride, no refeed, 18.75 h): 0.232
OD(600 nm) (Clostridium ljungdahlii; culture A, initial 400 mg/L L-cysteine-hydrochloride, no refeed, 41.5 h): 0.293
OD(600 nm) (Clostridium ljungdahlii; culture A, initial 400 mg/L L-cysteine-hydrochloride, no refeed, 46.75 h): 0.281
OD(600 nm) (Clostridium ljungdahlii; culture A, initial 400 mg/L L-cysteine-hydrochloride, no refeed, 65.5 h): 0.324
OD(600 nm) (Clostridium ljungdahlii; culture A, initial 400 mg/L L-cysteine-hydrochloride, no refeed, 69.5 h): 0.366
OD(600 nm) (Clostridium ljungdahlii; culture A, initial 400 mg/L L-cysteine-hydrochloride, no refeed, 89.75 h): 0.324
OD(600 nm) (Clostridium ljungdahlii; culture A, initial 400 mg/L L-cysteine-hydrochloride, no refeed, 163.5 h): 0.339
OD(600 nm) (Clostridium ljungdahlii; culture B, initial 200 mg/L L-cysteine-hydrochloride, no refeed, 0 h): 0.197
OD(600 nm) (Clostridium ljungdahlii; culture B, initial 200 mg/L L-cysteine-hydrochloride, no refeed, 18.75 h): 0.261
OD(600 nm) (Clostridium ljungdahlii; culture B, initial 200 mg/L L-cysteine-hydrochloride, no refeed, 41.5 h): 0.279
OD(600 nm) (Clostridium ljungdahlii; culture B, initial 200 mg/L L-cysteine-hydrochloride, no refeed, 46.75 h): 0.269
OD(600 nm) (Clostridium ljungdahlii; culture B, initial 200 mg/L L-cysteine-hydrochloride, no refeed, 65.5 h): 0.271
OD(600 nm) (Clostridium ljungdahlii; culture B, initial 200 mg/L L-cysteine-hydrochloride, no refeed, 69.5 h): 0.259
OD(600 nm) (Clostridium ljungdahlii; culture B, initial 200 mg/L L-cysteine-hydrochloride, no refeed, 89.75 h): 0.241
OD(600 nm) (Clostridium ljungdahlii; culture B, initial 200 mg/L L-cysteine-hydrochloride, no refeed, 163.5 h): 0.237
cell growth (Clostridium ljungdahlii; [7]): stronger cell growth than cultures A and B
concentrations of acetate and ethanol (Clostridium ljungdahlii; [7]): increased more than in culture A and B
OD(600 nm) (Clostridium ljungdahlii; culture C, initial 200 mg/L L-cysteine-hydrochloride, refed 200 mg/L after 18, 41, 65, 89 h, 0 h): 0.209
OD(600 nm) (Clostridium ljungdahlii; culture C, initial 200 mg/L L-cysteine-hydrochloride, refed 200 mg/L after 18, 41, 65, 89 h, 18.75 h): 0.245
OD(600 nm) (Clostridium ljungdahlii; culture C, initial 200 mg/L L-cysteine-hydrochloride, refed 200 mg/L after 18, 41, 65, 89 h, 41.5 h): 0.339
OD(600 nm) (Clostridium ljungdahlii; culture C, initial 200 mg/L L-cysteine-hydrochloride, refed 200 mg/L after 18, 41, 65, 89 h, 46.75 h): 0.335
OD(600 nm) (Clostridium ljungdahlii; culture C, initial 200 mg/L L-cysteine-hydrochloride, refed 200 mg/L after 18, 41, 65, 89 h, 65.5 h): 0.399
OD(600 nm) (Clostridium ljungdahlii; culture C, initial 200 mg/L L-cysteine-hydrochloride, refed 200 mg/L after 18, 41, 65, 89 h, 69.5 h): 0.392
OD(600 nm) (Clostridium ljungdahlii; culture C, initial 200 mg/L L-cysteine-hydrochloride, refed 200 mg/L after 18, 41, 65, 89 h, 89.75 h): 0.431
OD(600 nm) (Clostridium ljungdahlii; culture C, initial 200 mg/L L-cysteine-hydrochloride, refed 200 mg/L after 18, 41, 65, 89 h, 95.5 h): 0.434
OD(600 nm) (Clostridium ljungdahlii; culture C, initial 200 mg/L L-cysteine-hydrochloride, refed 200 mg/L after 18, 41, 65, 89 h, 163.5 h): 0.481
